Source: ChEMBL document CHEMBL3507680, “University of Dundee, Gates Library screen for HepG2 cell viability”

assay: Human HepG2 cell viability assay in 384 well format; format: toxicity, cell-based; design: dose 125 nL, time 70.5 hour; concentration not given beside the values; conditions: HepG2 cells, read-out: Inhibition

Q: For Cc1nn(C)c(Cl)c1C(=O)NCC1(C(N)=O)CCOCC1, which cytotoxicity at 70.5 h is on record?
A: -11.7%

Q: Which cytotoxicity at 70.5 h does the source give for CCn1ncc(CNC(=O)c2cn(CCC3CCCCN3)nn2)c1C (stereo unspecified) here?
A: -6.28%

Q: Which cytotoxicity at 70.5 h does the source give for c1ccc(Cc2nnc(CN3CCn4c(nnc4C4CC4)C3)o2)cc1 here?
A: -13.3%

Q: For CC(C)(CNC(=O)C1(c2cccc(Br)c2)CCOCC1)C(=O)O, which cytotoxicity at 70.5 h is on record?
A: -0.158%

Q: Which cytotoxicity at 70.5 h does the source give for Cc1ccnc(N2CCC(NCCOc3ccccc3)CC2)n1 here?
A: -4.28%

Q: Which cytotoxicity at 70.5 h does the source give for Cn1cc(CN2C[C@@H]3COC[C@]3(C(=O)NCCc3ccccc3)C2)cn1 here?
A: -8.15%

Q: For CCC(CO)NC(=O)c1cc(COc2ccc(OC)cc2Cl)[nH]n1 (stereo unspecified), which cytotoxicity at 70.5 h is on record?
A: -10.5%

Q: Which cytotoxicity at 70.5 h does the source give for COc1coc(C(=O)Nc2nc(-c3cccnc3)cs2)cc1=O here?
A: -13.5%

Q: Which cytotoxicity at 70.5 h does the source give for Cc1ccc(O)c(CNc2cccc(CN3CCSCC3)c2)n1 here?
A: 1.03%

Q: With Cc1ccnc(C2CN(Cc3ccc(-c4ccccc4C(=O)O)o3)C2)n1 as the compound, how does the cytotoxicity at 70.5 h read?
A: -0.616%

Q: Which cytotoxicity at 70.5 h does the source give for CC(=O)N1CCCN(C(=O)CCc2c(C)noc2C)CC1 here?
A: -16.4%

Q: With CCCN(CCC)S(=O)(=O)NCCc1cc(C)ccc1OC as the compound, how does the cytotoxicity at 70.5 h read?
A: -8.2%

Q: For Cc1cccc(S(=O)(=O)N2C[C@@H]3C[C@@H](c4nnc(C)[nH]4)O[C@@H]3C2)c1, which cytotoxicity at 70.5 h is on record?
A: -1.93%

Q: Which cytotoxicity at 70.5 h does the source give for Cc1ccc(CC(=O)N2CCCC2Cn2nc(C)cc2C)cn1 (stereo unspecified) here?
A: -11.5%

Q: With CCC(C(=O)NC1(C(N)=O)CCCC1)n1cccn1 (stereo unspecified) as the compound, how does the cytotoxicity at 70.5 h read?
A: -13.8%

Q: With Cc1nc(CCNC(=O)C2CC(=O)N(C(C)C)C2)cs1 (stereo unspecified) as the compound, how does the cytotoxicity at 70.5 h read?
A: 32.3%

Q: With CC(C)(C)C1CCC(O)(CNC(=O)CCS(C)(=O)=O)CC1 (stereo unspecified) as the compound, how does the cytotoxicity at 70.5 h read?
A: -4.23%

Q: Which cytotoxicity at 70.5 h does the source give for CC(C)c1nc(NS(=O)(=O)c2ccccc2Cl)no1 here?
A: 0.444%

Q: With CC(=O)N1CCCCC1c1nc(C)cc(-c2ccccc2C(=O)O)n1 (stereo unspecified) as the compound, how does the cytotoxicity at 70.5 h read?
A: -1.42%

Q: For O=C(Cc1ccc2c(c1)CCO2)N1CCCCC1Cn1cccn1 (stereo unspecified), which cytotoxicity at 70.5 h is on record?
A: -2.84%

Q: For Cc1ccc(C(C)NC(=O)Cc2c(C)nc3c(c2C)c(=O)[nH]n3C)o1 (stereo unspecified), which cytotoxicity at 70.5 h is on record?
A: -4.59%

Q: For Cc1nnc2ccc(N3CCC4(CCOC4)C3)nn12 (stereo unspecified), which cytotoxicity at 70.5 h is on record?
A: -3.17%

Q: With Cc1nc(C2CCCN2C(=O)CCCn2cncn2)no1 (stereo unspecified) as the compound, how does the cytotoxicity at 70.5 h read?
A: -7.37%

Q: For Fc1cc(CN2CCCC2Cn2cncn2)c2ncccc2c1 (stereo unspecified), which cytotoxicity at 70.5 h is on record?
A: 4.94%

Q: With FC(F)(F)c1[nH]nc2c1CN(Cc1ccccc1)CC2 as the compound, how does the cytotoxicity at 70.5 h read?
A: -11.1%

Q: With CC(=O)NCC(=O)NC1CCc2nccn2C1 (stereo unspecified) as the compound, how does the cytotoxicity at 70.5 h read?
A: 7.09%

Q: For CCc1nnc(NCc2cccc(OC)c2OC)o1, which cytotoxicity at 70.5 h is on record?
A: 8.49%

Q: Which cytotoxicity at 70.5 h does the source give for CN(C)Cc1ccc(C2CCCCN2C(=O)c2cc(=O)[nH]c(=O)[nH]2)cc1 (stereo unspecified) here?
A: -5.8%

Q: Which cytotoxicity at 70.5 h does the source give for O=C(c1ccc(-n2cccn2)nc1)N1CCC(Nc2cccnn2)CC1 here?
A: -18.2%

Q: Which cytotoxicity at 70.5 h does the source give for CCOC[C@@H]1CC[C@H]2[C@H](CCN2C(=O)c2ccncc2F)O1 here?
A: -1.37%

Q: For CC(C)c1nnc2n1CCN(CCC(=O)N1CCc3ccccc31)C2, which cytotoxicity at 70.5 h is on record?
A: -5.29%

Q: With COc1ncc(CN(C)C(C)c2cccnc2)cn1 (stereo unspecified) as the compound, how does the cytotoxicity at 70.5 h read?
A: 9.74%

Q: With CCN(C)CC1CCN(C(=O)NCCC2Cc3ccccc3C2)C1 (stereo unspecified) as the compound, how does the cytotoxicity at 70.5 h read?
A: -6.72%

Q: For c1ccc(CO[C@H]2C[C@@H]3CN(Cc4cccnc4)C[C@@H]3C2)cc1, which cytotoxicity at 70.5 h is on record?
A: -3.52%

Q: Which cytotoxicity at 70.5 h does the source give for O=C(NCc1nn(-c2ccccc2)c2c1CCC2)NC1CCC(O)CC1 (stereo unspecified) here?
A: -8.01%

Q: Which cytotoxicity at 70.5 h does the source give for O=C(Nc1cnccn1)[C@H]1CO[C@H]2CCN(c3ncc(F)cn3)C[C@H]2C1 here?
A: 15%

Q: For Cc1cnn(CC2CCCN2C(=O)c2cccc(CC#N)c2)c1 (stereo unspecified), which cytotoxicity at 70.5 h is on record?
A: -22%

Q: Which cytotoxicity at 70.5 h does the source give for CN(C)C(=O)c1ccccc1NCCCOc1cccc(C#N)c1 here?
A: 13.1%

Q: With Cc1nccn1-c1cccc(C2CCCN2S(=O)(=O)N(C)C)n1 (stereo unspecified) as the compound, how does the cytotoxicity at 70.5 h read?
A: 2.07%

Q: With Cc1noc(C)c1CN1CC[C@H]2O[C@@H](C(=O)N3CCCC3)CC[C@H]21 as the compound, how does the cytotoxicity at 70.5 h read?
A: 6.38%

Q: With CCS(=O)(=O)N1CCc2nc(N3CCCC3)nc(N(C)C)c2CC1 as the compound, how does the cytotoxicity at 70.5 h read?
A: 24.9%

Q: Which cytotoxicity at 70.5 h does the source give for CCCC(C)CN1CCC(n2cc(CCCO)nn2)CC1 (stereo unspecified) here?
A: -4.4%

Q: With Cc1cnn(CC2CCCCN2C(=O)CCCc2nc(C)no2)c1 (stereo unspecified) as the compound, how does the cytotoxicity at 70.5 h read?
A: -5.29%

Q: With O=C(O)c1ccc(S(=O)(=O)Nc2ccc(Cl)c(F)c2)c(F)c1 as the compound, how does the cytotoxicity at 70.5 h read?
A: -5.1%

Q: With O=C(NCC1CC1)C1CN(C(=O)c2ccco2)CC12CCOCC2 (stereo unspecified) as the compound, how does the cytotoxicity at 70.5 h read?
A: -1.19%

Q: For COc1ccc(OC)c(C(C)NS(=O)(=O)c2cn(C)nc2C)c1 (stereo unspecified), which cytotoxicity at 70.5 h is on record?
A: -3.29%

Q: Which cytotoxicity at 70.5 h does the source give for COc1ccc(OC)c(C(=O)N(C)Cc2ncc(C)c(OC)c2C)c1 here?
A: -9%

Q: With CSc1ccc(C(C(=O)O)N2CCCC2)cc1 (stereo unspecified) as the compound, how does the cytotoxicity at 70.5 h read?
A: -7.97%

Q: For CC(C)N(C(=O)CCc1cccc(F)c1)C1CCOCC1, which cytotoxicity at 70.5 h is on record?
A: -4.3%

Q: With COCCN1C(=O)CC(c2cccnc2)C12CCN(C)CC2 (stereo unspecified) as the compound, how does the cytotoxicity at 70.5 h read?
A: 0.172%

Q: With Cc1nc2c(c(NC(C)c3nnn[nH]3)n1)Cc1ccccc1OC2 (stereo unspecified) as the compound, how does the cytotoxicity at 70.5 h read?
A: -6.63%

Q: Which cytotoxicity at 70.5 h does the source give for CCCc1nc(CN2CCCC(c3noc(C4CC4)n3)C2)no1 (stereo unspecified) here?
A: -4.77%

Q: With NC(=O)C1CN(C(=O)c2ccc(F)cc2)CCN1CCc1ccccc1 (stereo unspecified) as the compound, how does the cytotoxicity at 70.5 h read?
A: -4.6%

Q: For CCS(=O)(=O)N[C@H]1CN(CC(C)(C)N2CCOCC2)C[C@@H]1C1CC1, which cytotoxicity at 70.5 h is on record?
A: -18.9%

Q: With CC1=CC(C)(C)N(CN2C(=O)c3ccccc3C2=O)c2ccccc21 as the compound, how does the cytotoxicity at 70.5 h read?
A: 0.789%

Q: For Cn1cc(CN2CC[C@@H]3[C@@H]2CCN3Cc2ccc3c(c2)OCO3)cn1, which cytotoxicity at 70.5 h is on record?
A: -3%
